Test results published in ChEMBL document CHEMBL1201862, “PubChem BioAssay data set” (2004).
Activity calls are given as the source filed them.

Assays:
Protein RecA = target: T1, Protein RecA (Mycobacterium tuberculosis, UniProt P9WHJ3); test: Fluorescence Cell-Free Homogeneous Dose Retest to Identify Inhibitors of RecA-Intein Splicing Activity. [Related pubchem assays (depositor defined):AID2097, AID2223, AID489010, AID492950]; format: functional
T1 sequence (P9WHJ3 whole entry): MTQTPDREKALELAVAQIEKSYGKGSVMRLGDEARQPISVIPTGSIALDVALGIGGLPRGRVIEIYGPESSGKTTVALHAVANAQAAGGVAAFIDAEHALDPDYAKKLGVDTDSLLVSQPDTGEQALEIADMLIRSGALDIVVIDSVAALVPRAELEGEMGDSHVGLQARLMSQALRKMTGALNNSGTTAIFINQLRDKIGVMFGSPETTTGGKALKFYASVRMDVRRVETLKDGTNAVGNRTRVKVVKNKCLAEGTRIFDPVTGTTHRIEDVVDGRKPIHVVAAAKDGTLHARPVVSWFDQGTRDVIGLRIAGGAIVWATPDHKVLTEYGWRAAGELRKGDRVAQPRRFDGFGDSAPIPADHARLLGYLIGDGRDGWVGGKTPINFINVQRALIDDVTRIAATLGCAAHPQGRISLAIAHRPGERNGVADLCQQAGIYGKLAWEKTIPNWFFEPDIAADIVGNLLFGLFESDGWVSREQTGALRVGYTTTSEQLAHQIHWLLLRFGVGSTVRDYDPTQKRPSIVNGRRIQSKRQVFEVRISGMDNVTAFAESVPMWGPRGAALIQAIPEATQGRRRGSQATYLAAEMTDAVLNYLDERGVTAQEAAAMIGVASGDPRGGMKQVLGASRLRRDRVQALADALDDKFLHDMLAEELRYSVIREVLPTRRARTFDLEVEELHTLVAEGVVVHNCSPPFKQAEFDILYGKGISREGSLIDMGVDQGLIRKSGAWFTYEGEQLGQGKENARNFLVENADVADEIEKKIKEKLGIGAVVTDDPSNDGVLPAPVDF

[1] = target: T2, Replicative DNA helicase DnaB (Mycobacterium tuberculosis, UniProt P9WMR3); test: DnaB intein splicing inhibitors, dose response, biochemical, cell-free fluorescence (AID 449749); format: functional
T2 sequence (P9WMR3 whole entry): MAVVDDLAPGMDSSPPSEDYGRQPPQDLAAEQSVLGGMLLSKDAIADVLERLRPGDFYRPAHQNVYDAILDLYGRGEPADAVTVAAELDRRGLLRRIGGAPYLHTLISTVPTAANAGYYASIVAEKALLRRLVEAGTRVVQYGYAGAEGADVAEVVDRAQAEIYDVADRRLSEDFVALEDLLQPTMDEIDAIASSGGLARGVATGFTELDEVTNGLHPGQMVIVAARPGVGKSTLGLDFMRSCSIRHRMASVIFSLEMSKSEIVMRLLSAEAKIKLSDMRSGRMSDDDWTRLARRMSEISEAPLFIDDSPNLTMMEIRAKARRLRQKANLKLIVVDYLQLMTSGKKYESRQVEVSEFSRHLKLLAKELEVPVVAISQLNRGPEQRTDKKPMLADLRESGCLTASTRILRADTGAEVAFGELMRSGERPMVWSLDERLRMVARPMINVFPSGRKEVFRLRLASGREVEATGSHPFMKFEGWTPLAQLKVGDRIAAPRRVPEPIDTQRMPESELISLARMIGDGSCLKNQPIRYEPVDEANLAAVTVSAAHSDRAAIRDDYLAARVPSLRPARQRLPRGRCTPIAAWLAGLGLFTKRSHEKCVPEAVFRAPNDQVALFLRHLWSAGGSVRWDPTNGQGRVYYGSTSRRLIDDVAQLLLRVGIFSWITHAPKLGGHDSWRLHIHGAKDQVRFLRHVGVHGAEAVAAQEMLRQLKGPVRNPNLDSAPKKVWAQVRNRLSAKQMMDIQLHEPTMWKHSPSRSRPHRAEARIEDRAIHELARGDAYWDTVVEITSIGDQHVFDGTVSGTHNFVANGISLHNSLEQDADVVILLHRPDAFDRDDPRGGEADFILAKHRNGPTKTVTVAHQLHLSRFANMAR

Streptococcus = test: Group A Streptococcus viability loss, dose response, counter-screen for streptokinase expression inhibitor project, luminescence, BacTiterGlo (AID 1915); format: functional, organism-based;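 further: potency for reduction of bacterial viability or growth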
Cytochrome P450 3A4 = Cytochrome P450 3A4 (Homo sapiens, UniProt P08684);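 further: CYP3A4 tested as one member of a cytochrome P450 panel screen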
Cytochrome P450 2D6 = Cytochrome P450 2D6 (Homo sapiens, UniProt P10635);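 further: CYP2D6 member of a cytochrome P450 panel assay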
Streptokinase A = target: T3, Streptokinase A (Streptococcus pyogenes serotype M1, UniProt P10520); test: S. pyogenes streptokinase expression inhibitors, potency, dose response, plasminogen activation absorbance, OD405 (AID 1914); format: functional, Streptococcus pyogenes M1 GAS;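 further: secreted streptokinase activity via plasminogen activation per viability signal from cell pellet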
T3 sequence (P10520 whole entry): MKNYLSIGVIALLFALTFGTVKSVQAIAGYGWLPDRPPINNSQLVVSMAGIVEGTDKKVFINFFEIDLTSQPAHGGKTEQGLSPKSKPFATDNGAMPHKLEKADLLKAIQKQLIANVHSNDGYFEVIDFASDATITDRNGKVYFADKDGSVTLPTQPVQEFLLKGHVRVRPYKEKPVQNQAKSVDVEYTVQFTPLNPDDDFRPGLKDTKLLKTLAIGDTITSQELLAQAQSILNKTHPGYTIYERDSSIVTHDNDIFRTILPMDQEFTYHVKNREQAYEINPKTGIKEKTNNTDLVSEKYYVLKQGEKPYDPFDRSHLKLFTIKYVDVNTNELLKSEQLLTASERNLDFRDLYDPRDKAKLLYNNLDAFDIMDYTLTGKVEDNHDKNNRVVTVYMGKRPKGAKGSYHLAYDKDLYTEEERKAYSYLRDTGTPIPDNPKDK

[2] = system: Streptococcus sp. 'group A'; test: growth inhibition of control SK(-) GAS strain, dose response, counter-screen for streptokinase expression inhibitor project, luminescence, kanamycin, BacTiterGlo, confirmation (AID 1900); format: functional, organism-based
Protein skinhead-1 = target: T4, Protein skinhead-1 (Caenorhabditis elegans, UniProt P34707); format: functional
T4 sequence (P34707 whole entry): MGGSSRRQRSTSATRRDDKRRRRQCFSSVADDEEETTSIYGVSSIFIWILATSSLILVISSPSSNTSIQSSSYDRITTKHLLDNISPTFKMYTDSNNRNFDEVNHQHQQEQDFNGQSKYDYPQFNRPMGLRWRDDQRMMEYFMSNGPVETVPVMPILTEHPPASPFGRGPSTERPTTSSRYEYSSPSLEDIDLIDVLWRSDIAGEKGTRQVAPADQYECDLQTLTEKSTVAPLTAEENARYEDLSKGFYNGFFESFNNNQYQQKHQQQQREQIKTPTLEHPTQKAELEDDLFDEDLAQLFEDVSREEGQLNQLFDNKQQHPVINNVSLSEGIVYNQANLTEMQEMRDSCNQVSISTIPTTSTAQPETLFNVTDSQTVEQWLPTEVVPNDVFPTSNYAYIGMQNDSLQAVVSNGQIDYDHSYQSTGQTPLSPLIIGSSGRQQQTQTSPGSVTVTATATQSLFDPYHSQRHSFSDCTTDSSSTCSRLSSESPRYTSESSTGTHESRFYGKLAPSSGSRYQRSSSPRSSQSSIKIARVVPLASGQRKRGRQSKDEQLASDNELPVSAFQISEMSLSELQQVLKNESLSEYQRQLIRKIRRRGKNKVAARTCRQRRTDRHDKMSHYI

H4 = test: Luminescence Cell-Based Dose Response HTS to Identify Activators of 5'UTR Stem-Loop Driven Prion Protein mRNA Translation in H4 Neuroglioblastoma Cells. [Related pubchem assays: 1829 (Project Summary), 1814 (Primary HTS)]; format: functional; settings: Homo sapiens
[3] = Luminescence Cell-Based Dose Response HTS to Identify Activators of Luciferase Translation or Activity in H4 […] Cells. [Related pubchem assays: 1829 (Project Summary), 1814 (Primary HTS)]; format: functional
[4] = target: T5, Heat shock factor protein 1 (Mus musculus, UniProt P38532); test: inhibition of MG132-induced HSE-luciferase signal, confirmation, cell-based, NIH3T3, luminescence, dose retest (AID 2382); format: functional;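 further: NIH3T3 fibroblasts with HSF1-driven luciferase reporter stressed by proteasome inhibitor MG132; luminescence from HSF1-driven luciferase expression after 8 hours of MG132 stress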
T5 sequence (P38532 whole entry): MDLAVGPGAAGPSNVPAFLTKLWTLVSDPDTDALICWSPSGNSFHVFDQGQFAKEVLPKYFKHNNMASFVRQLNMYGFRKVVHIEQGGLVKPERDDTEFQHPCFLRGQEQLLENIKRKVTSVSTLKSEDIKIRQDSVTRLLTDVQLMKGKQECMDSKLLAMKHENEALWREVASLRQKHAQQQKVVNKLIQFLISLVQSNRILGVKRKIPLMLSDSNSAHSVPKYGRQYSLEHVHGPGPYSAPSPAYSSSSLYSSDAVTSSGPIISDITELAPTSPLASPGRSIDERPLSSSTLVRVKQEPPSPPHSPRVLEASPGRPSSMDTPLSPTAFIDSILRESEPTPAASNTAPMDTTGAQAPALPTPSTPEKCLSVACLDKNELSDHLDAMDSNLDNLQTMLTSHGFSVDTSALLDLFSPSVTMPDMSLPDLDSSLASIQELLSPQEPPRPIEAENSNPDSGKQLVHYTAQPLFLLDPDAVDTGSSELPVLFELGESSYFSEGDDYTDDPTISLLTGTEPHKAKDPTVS

Cytochrome P450 2C9 = Cytochrome P450 2C9 (Homo sapiens, UniProt P11712)
Chain of Cytochrome P450 2C9 (P11712 whole entry): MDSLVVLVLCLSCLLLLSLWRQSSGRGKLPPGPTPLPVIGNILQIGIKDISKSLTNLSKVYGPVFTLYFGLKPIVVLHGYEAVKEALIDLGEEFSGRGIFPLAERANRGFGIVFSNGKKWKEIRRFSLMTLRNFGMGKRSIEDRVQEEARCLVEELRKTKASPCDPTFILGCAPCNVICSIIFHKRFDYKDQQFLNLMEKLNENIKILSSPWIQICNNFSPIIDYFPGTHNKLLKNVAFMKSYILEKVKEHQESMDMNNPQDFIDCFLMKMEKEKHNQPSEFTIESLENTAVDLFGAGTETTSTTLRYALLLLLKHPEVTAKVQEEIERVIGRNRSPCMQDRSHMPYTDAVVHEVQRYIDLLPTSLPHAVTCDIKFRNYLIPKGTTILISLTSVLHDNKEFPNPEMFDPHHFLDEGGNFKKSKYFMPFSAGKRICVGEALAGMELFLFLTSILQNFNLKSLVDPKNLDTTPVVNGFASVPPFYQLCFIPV

Chain of Cytochrome P450 2D6 (P10635 whole entry): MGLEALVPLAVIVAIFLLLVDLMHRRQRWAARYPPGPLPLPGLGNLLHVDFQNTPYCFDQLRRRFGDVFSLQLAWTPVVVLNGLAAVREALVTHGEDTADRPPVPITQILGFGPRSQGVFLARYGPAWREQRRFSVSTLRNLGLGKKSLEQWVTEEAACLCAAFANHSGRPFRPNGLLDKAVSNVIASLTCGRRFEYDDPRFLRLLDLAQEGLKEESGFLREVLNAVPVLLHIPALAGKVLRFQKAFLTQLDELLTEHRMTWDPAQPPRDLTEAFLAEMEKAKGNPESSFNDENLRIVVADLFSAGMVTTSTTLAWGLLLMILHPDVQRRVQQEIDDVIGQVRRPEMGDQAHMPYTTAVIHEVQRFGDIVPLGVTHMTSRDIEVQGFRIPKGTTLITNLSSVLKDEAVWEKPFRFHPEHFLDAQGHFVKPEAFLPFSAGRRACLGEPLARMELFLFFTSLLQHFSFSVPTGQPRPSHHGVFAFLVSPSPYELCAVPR
Chain of Cytochrome P450 3A4 (P08684 whole entry): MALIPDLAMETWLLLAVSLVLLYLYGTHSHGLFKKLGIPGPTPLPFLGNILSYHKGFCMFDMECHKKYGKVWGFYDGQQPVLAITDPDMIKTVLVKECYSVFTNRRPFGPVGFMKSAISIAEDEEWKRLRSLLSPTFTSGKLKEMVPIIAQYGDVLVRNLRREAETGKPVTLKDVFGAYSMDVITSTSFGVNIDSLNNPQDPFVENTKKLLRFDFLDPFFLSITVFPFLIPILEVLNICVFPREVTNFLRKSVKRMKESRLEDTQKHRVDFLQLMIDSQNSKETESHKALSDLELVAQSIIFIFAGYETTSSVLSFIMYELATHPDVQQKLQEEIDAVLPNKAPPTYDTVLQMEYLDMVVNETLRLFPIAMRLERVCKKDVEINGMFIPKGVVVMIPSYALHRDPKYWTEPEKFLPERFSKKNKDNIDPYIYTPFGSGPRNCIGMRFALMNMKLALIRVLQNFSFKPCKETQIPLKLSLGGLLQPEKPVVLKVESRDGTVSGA

Row | Compound | EC50 (Protein RecA) | AC50 [1] | IC50 (Protein skinhead-1) | further results
1 | COc1cc(/C=C2/C(=O)N(c3ccc(Br)cc3)N=C2C)cc(OC)c1OC | 12.4 µM (active) | 4.08 µM (active) |  | 
2 | O=C(Nc1ncc(Cc2cccc(Cl)c2)s1)c1cccs1 |  |  |  | EC50 (Streptococcus): 7.17 µM (active); AC50 (Cytochrome P450 3A4): 15.8 µM (inconclusive); AC50 (Cytochrome P450 2D6): 7.08 µM (inconclusive); EC50 (Streptokinase A): > 150 µM (not active); EC50 [2]: 3.67 µM (active)
3 | O=C(C=Cc1ccccc1)c1cc(Br)ccc1O |  |  | > 100 µM (inactive) | 
4 | Clc1ccc2[nH]c(-c3ccc(Cl)nc3)nc2c1 |  |  |  | EC50 (H4): > 120 µM (not active); EC50 [3]: 22.3 µM (active)
5 | Cc1n[nH]c2c1C1(CCN(C(=O)c3ccccc3)CC1)C(C#N)=C(N)O2 | 1.3 µM (active) | 7.89 µM (active) |  | 
6 | CCOc1cc(NC(=O)c2ccco2)c(OCC)cc1NC(=O)CCc1ccccc1OC |  |  | > 100 µM (inactive) | 
7 | Cc1cc2ccccc2n1CCNC(=O)c1ccc(S(=O)(=O)N2CCOCC2)cc1 |  |  | > 100 µM (inactive) | 
8 | CCOC(=O)/C=c1\s/c(=C(\C#N)C(N)=O)n(-c2ccccc2)c1=O | > 380 µM (inconclusive) | 9.68 µM (active) |  | 
9 | Cc1cc(=O)n2nc(-c3ccc(C(F)(F)F)cc3)sc2n1 |  |  |  | EC50 (H4): 8.75 µM (active); EC50 [3]: > 120 µM (not active); EC50 [4]: > 195 µM (not active)
10 | Cc1ccccc1CNC(=O)c1ccc2sc([C@H]3C[C@H](O)[C@@H](CO)O3)nc2c1 |  |  | > 100 µM (inactive) | 
11 | CCCCN(C(=O)c1cccc2c(=O)c(C)c(-c3ccccc3)oc12)c1ccccc1 | 15.2 µM (active) | 4.15 µM (active) |  | 
12 | CCCc1n[nH]c2c1C(c1ccc(OC)cc1OC)C(C#N)=C(N)O2 (stereo not given) | 4.07 µM (active) | 6.28 µM (active) |  | 
13 | Oc1cc(-c2ccccc2)n[nH]1 | 0.517 µM (active) | 1.43 µM (active) |  | 
14 | COc1ccccc1C(=O)Nc1ccc(Br)cc1C |  |  | > 100 µM (inactive) | 
15 | Nc1nc(-c2ccc(Oc3ccccc3)cc2)cs1 |  |  | 98.1 µM (inactive) | 
16 | CC1(c2ccc(Cl)cc2)NC(=O)N(CN2CCOCC2)C1=O (stereo not given) |  |  | > 100 µM (inactive) | 
17 | ClCc1nnc(-c2cc3c(s2)CCCC3)o1 | 3.55 µM (active) | 10.7 µM (active) |  | 
18 | Cn1nc(C(=O)N2CCN(S(=O)(=O)c3ccccc3)CC2)c2ccccc2c1=O |  |  | > 100 µM (inactive) | 
19 | CCN(CC(=O)Nc1ccccc1C(F)(F)F)C(=O)C1CC(=O)N(Cc2ccccc2)C1 (stereo not given) |  |  | > 100 µM (inactive) | 
20 | COc1ccc(C2C(C#N)=C(N)Oc3[nH]nc(C)c32)cc1CN1CCN(c2ccc(F)cc2)CC1 (stereo not given) | 6.55 µM (active) | 10.3 µM (active) |  | AC50 (Cytochrome P450 2D6): 25.1 µM (inconclusive); AC50 (Cytochrome P450 2C9): 35.5 µM (inconclusive)
21 | C=CCSc1nc(-c2ccccc2)c2cc(Cl)ccc2n1 |  |  |  | EC50 (Streptococcus): 46.4 µM (active); EC50 (Streptokinase A): 29.4 µM (active); EC50 [2]: 15 µM (active)
22 | CCCC(C(=O)NCC1CCCO1)N(Cc1ccccc1)C(=O)CNS(=O)(=O)c1ccccc1 (stereo not given) |  |  | > 100 µM (inactive) | 
23 | Oc1ccc(Nc2nc(-c3ccc(O)cc3)cs2)cc1 | 43.8 µM (active) | 111 µM (active) |  | 
24 | Cc1ccc(Cn2c(=O)n(Cc3ccco3)c(=O)c3ccccc32)cc1 |  |  |  | EC50 (Streptococcus): > 150 µM (not active); EC50 (Streptokinase A): > 150 µM (not active); EC50 [2]: 21.1 µM (active)
25 | Nc1nc(-c2ccc(-c3ccccc3)cc2)cs1 |  |  | > 100 µM (inactive) | 
26 | CCOC(=O)c1ccc(CC2S/C(=C(\C#N)C(C)=O)NC2=O)cc1 (stereo not given) | > 380 µM (inactive) | > 380 µM (inactive) |  | 
27 | O=[N+]([O-])c1ccc2cn(-c3ccccc3)nc2c1 |  |  | 54.4 µM (inactive) | 
